# pKi: −log10 of the molar value. Read-outs that look alike come from different tables or passages of the source.
# Legend:
# GST-MCL-1 = GST-MCL-1 (Homo sapiens, UniProt Q07820); assay: TR-FRET MCL-1 binding assay (competition with probe F-Bak); conditions: for Ki: MCL-1 Binding Ki (nM, 10% HS), in the presence of 10% HS (human serum); for pKi: without HS, read-out: MCL-1 Binding Ki
# How it was run: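 Displacement of F-Bak from GST-MCL-1 is detected by time-resolved FRET with a Tb-labelled anti-GST antibody, with excitation 340/35 nm and emission 520/525 and 495/510 nm, after 2 hours at room temperature. Compounds were titrated in 11 three-fold steps starting at 25 μM final, in buffer alone or in 10% HS.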
# [1] = tested on: AMO-1 human multiple myeloma tumor cell line; assay: AMO-1 cell viability assay (CellTiter-Glo, 24 hours); assay type: cell-based; conditions: Homo sapiens, AMO1, 24 h, read-out: AMO-1 Viability IC50 (μM, 10% FBS), 10% FBS, 24 hours of compound treatment
# [2] = tested on: NCI-H929 human multiple myeloma tumor cell line; assay: NCI-H929 cell viability assay (CellTiter-Glo, 24 hours); assay type: cell-based; conditions: Homo sapiens, NCI-H929, 24 h, read-out: H929 Viability IC50 (μM, 10% FBS), 10% FBS, 24 hours of compound treatment
# Protocol: Each concentration was tested in duplicate at least 3 independent times. A luminescent signal proportional to the number of viable cells following 24 hours of compound treatment was determined using the CellTiter-Glo® Luminescent Cell Viability Assay according to the manufacturer's recommendations (Promega Corp., Madison, WI). The plates were read in a Perkin Elmer Envision using a Luminescence protocol. To generate dose response curves the data is normalized to percent viability by setting the averages of the staurosporine (10 μM) and DMSO only control wells to 0% and 100% viability respectively.
# GST-MCL-1, sequence (Q07820 whole entry): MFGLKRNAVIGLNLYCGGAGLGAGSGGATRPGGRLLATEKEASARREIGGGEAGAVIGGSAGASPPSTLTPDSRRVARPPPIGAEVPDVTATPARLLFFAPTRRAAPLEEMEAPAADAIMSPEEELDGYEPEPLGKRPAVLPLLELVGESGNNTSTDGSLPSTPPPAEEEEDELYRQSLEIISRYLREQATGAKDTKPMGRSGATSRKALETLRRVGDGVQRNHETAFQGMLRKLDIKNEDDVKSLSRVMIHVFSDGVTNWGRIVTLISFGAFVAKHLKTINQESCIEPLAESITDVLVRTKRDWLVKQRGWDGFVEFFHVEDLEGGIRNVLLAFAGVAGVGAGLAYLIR
SMILES,Ki (GST-MCL-1),pKi (GST-MCL-1),IC50 [1],IC50 [2]
"Cc1c(Cl)c2c(Cl)c(C)c1-c1c(-c3ccc(F)cc3)sc3ncnc(c13)O[C@@H](C(=O)O)Cc1cc(ccc1OCc1ccnc(-c3ccccc3OC[C@H](O)CO)n1)OC[C@@H](CN1CCN(C)CC1)O2 [Example 23, (7R,16R)-19,23-dichloro-10-[(2-{2-[(2R)-2,3-dihydroxypropoxy]phenyl}pyrimidin-4-yl)methoxy]-1-(4-fluorophenyl)-20,22-dimethyl-16-[(4-methylpiperazin-1-yl)methyl]-7,8,15,16-tetrahydro-18,21-etheno-13,9-(metheno)-6,14,17-trioxa-2-thia-3,5-diazacyclononadeca[1,2,3-cd]indene-7-carboxylic Acid]",0.238 nM,10.74,0.00222 µM,0.00389 µM
"Cc1c(Cl)c2c(Cl)c(C)c1-c1c(-c3ccc(F)cc3)sc3ncnc(c13)O[C@@H](C(=O)O)Cc1cc(ccc1OCc1ccnc(-c3ccc(OCCN4C[C@H]5COC[C@H]5C4)cc3)n1)OC[C@@H](CN1CCN(C)CC1)O2 [Example 164, (7R,16R)-19,23-dichloro-1-(4-fluorophenyl)-20,22-dimethyl-16-[(4-methylpiperazin-1-yl)methyl]-10-{[2-(4-{2-[(3aR,6aS)-tetrahydro-1H-furo[3,4-c]pyrrol-5 (3H)-yl]ethoxy}phenyl)pyrimidin-4-yl]methoxy}-7,8,15,16-tetrahydro-18,21-etheno-13,9-(metheno)-6,14,17-trioxa-2-thia-3,5-diazacyclononadeca[1,2,3-cd]indene-7-carboxylic Acid]",0.453 nM,10.21,0.000416 µM,0.00147 µM
"COCCOCCOCCOCc1ccc(-c2nccc(COc3ccc4cc3C[C@H](C(=O)O)Oc3ncnc5sc(-c6ccc(F)cc6)c(c35)-c3c(C)c(Cl)c(c(Cl)c3C)O[C@H](CN3CCN(C)CC3)CO4)n2)c(OCCOCCOCCOC)c1 [Example 153, (7R,16R)-19,23-dichloro-1-(4-fluorophenyl)-10-({2-[2-{2-[2-(2-methoxyethoxy)ethoxy]ethoxy}-4-(2,5,8,11-tetraoxadodecan-1-yl)phenyl]pyrimidin-4-yl}methoxy)-20,22-dimethyl-16-[(4-methylpiperazin-1-yl)methyl]-7,8,15,16-tetrahydro-18,21-etheno-13,9-(metheno)-6,14,17-trioxa-2-thia-3,5-diazacyclononadeca[1,2,3-cd]indene-7-carboxylic Acid]",0.023 nM,12.00,0.00728 µM,0.00688 µM
"COCCOCCOC[C@@]1(F)CC=C(c2nccc(COc3ccc4cc3C[C@H](C(=O)O)Oc3ncnc5sc(C6=CCCC6)c(c35)-c3c(C)c(Cl)c(c(Cl)c3C)O[C@H](CN3CCN(C)CC3)CO4)n2)CC1 (relative stereo) [Example 135, (7R,16R)-19,23-dichloro-1-(cyclopent-1-en-1-yl)-10-({2-[(4S*)-4-fluoro-4-{[2-(2-methoxyethoxy)ethoxy]methyl}cyclohex-1-en-1-yl]pyrimidin-4-yl}methoxy)-20,22-dimethyl-16-[(4-methylpiperazin-1-yl)methyl]-7,8,15,16-tetrahydro-18,21-etheno-13,9-(metheno)-6,14,17-trioxa-2-thia-3,5-diazacyclononadeca[1,2,3-cd]indene-7-carboxylic Acid]",0.489 nM,10.54,0.000191 µM,0.000591 µM
"Cc1c(Cl)c2c(Cl)c(C)c1-c1c(-c3ccc(F)cc3)sc3ncnc(c13)O[C@@H](C(=O)O)Cc1cc(ccc1OCc1ccnc(-c3ccc(OC[C@@H]4CN(C)CCO4)cc3)n1)OC[C@@H](CN1CCN(C)CC1)O2 [Example 157, (7R,16R)-19,23-dichloro-1-(4-fluorophenyl)-20,22-dimethyl-10-{[2-(4-{[(2S)-4-methylmorpholin-2-yl]methoxy}phenyl)pyrimidin-4-yl]methoxy}-16-[(4-methylpiperazin-1-yl)methyl]-7,8,15,16-tetrahydro-18,21-etheno-9,13-(metheno)-6,14,17-trioxa-2-thia-3,5-diazacyclononadeca[1,2,3-cd]indene-7-carboxylic Acid]",0.168 nM,11.10,0.000233 µM,0.000821 µM
